# In patent publication US20240150423A1, “GLP-1 ANALOGUE-MODIFIED DIMERS WITH DIFFERENT CONFIGURATIONS, PREPARATION METHOD THEREOF, AND APPLICATION THEREOF IN TREATMENT OF TYPE II DIABETES” (Nanjing Finepeptide Biopharmaceutical Co.,Ltd, priority 2019, published 2024):
# Test system: Normal Kunming (KM) mice
# Assay: multiple OGTT (mOGTT): hypoglycemic duration after a single administration
# Assay type: in vivo
# Settings: monomeric peptides, single injection at the same dose (1.126 nmol), subcutaneous
# From the text: • 1. Methods: Normal Kunming (KM) mice (purchased from Guangdong Animal Center) were used for oral glucose tolerance test (OGTT) to obtain the hypoglycemic activity and durability of drug. […] The blood glucose meter and blood glucose test paper were from Bayer […]. The average blood glucose of each group was used as an evaluation standard: When the average blood glucose of experimental group was higher than that of the NaCl control group for two times, the measurement stopped and the hypoglycemic period compared to the blank control group was the effective duration. • 2. Results • 2.1 single OGTTs: after a single administration, the mice were orally administered glucose once and measured the blood glucose from the tail blood at 0, 10, 20, 40, 60 and 120 min. […] The duration of each monomer group was about 1⁄2-1⁄4 of the duration of its corresponding dimer group. […] Therefore, the 2G3 peptide was selected for treating type II diabetes (T2D) in vivo and subsequent experiments.
row,Substance,Hypoglycemic
1,His-Ala-Glu-Gly-Thr-Phe-Thr-Ser-Asp-Val-Cys-Ser-Tyr-Leu-Glu-Gly-Gln-Ala-Ala-Lys[N-ϵ-(N-α-oleoyl)]-Glu-Phe-Ile-Ala-Trp-Leu-Val-Arg-Gly-Arg-Gly-OH (HAEGTFTSDVCSYLEGQAAXEFIAWLVRGRG; oleoyl on Lys; C-terminal acid; Sequence is synthesized; (20)..(20) Xaa is 26Lys[N-e-(N-a-oleoyl-L-g-glutamyl)]; (31)..(31) C-terminal) [G4 series 26],4 days
2,His-Ala-Glu-Gly-Thr-Phe-Thr-Ser-Asp-Val-Cys-Ser-Tyr-Leu-Glu-Gly-Gln-Ala-Ala-Lys[N-ϵ-(N-α-oleoyl-L-γ-glutamyl)]-Glu-Phe-Ile-Ala-Trp-Leu-Val-Arg-Gly-Arg-Gly-NH2 (HAEGTFTSDVCSYLEGQAAXEFIAWLVRGRG; oleoyl-γ-glutamyl on Lys; C-terminal amide; Sequence is synthesized; (20)..(20) Xaa is 26Lys[N-e-(N-a-oleoyl-L-g-glutamyl)]; (31)..(31) N-terminal) [G2 series 10],5 days
3,His-Ala-Glu-Gly-Thr-Phe-Thr-Ser-Asp-Val-Cys-Ser-Tyr-Leu-Glu-Gly-Gln-Ala-Ala-Lys[N-ϵ-(N-α-oleoyl-L-γ-glutamyl)]-Glu-Phe-Ile-Ala-Trp-Leu-Val-Arg-Gly-Arg-Gly-OH (HAEGTFTSDVCSYLEGQAAXEFIAWLVRGRG; oleoyl-γ-glutamyl on Lys; C-terminal acid; Sequence is synthesized; (20)..(20) Xaa is 26Lys[N-e-(N-a-oleoyl-L-g-glutamyl)]; (31)..(1) C-terminal) [G2 series 9],3 days
4,His-Ala-Glu-Gly-Thr-Phe-Thr-Ser-Asp-Val-Ser-Cys--Tyr-Leu-Glu-Gly-Gln-Ala-Ala-Lys[N-ϵ-(N-α-oleoyl-L-γ-glutamyl)]-Glu-Phe-Ile-Ala-Trp-Leu-Val-Arg-Gly-Arg-Gly-NH2 (HAEGTFTSDVSCYLEGQAAXEFIAWLVRGRG; oleoyl-γ-glutamyl on Lys; C-terminal amide; Sequence is synthesized; (20)..(20) Xaa is 26Lys[N-e-(N-a-oleoyl-L-g-glutamyl)]; (31)..(31) N-terminal) [G3 series 23],7 days
5,His-Ala-Glu-Gly-Thr-Phe-Thr-Ser-Asp-Val-Ser-Cys-Tyr-Leu-Glu-Gly-Gln-Ala-Ala-Lys-Glu-Phe-Ile-Ala-Trp-Leu-Val-Arg-Gly-Arg-NH-PEG (HAEGTFTSDVSCYLEGQAAKEFIAWLVRGR; not fully specified; C-terminal PEG; Sequence is synthesized; (30)..(30) N-terminal is modified with PEG) [G9 series 71],3 days
6,His-Ala-Glu-Gly-Thr-Phe-Thr-Ser-Asp-Val-Ser-Cys-Tyr-Leu-Glu-Gly-Gln-Ala-Ala-Lys[N-ϵ-(N-α-Palmitoyl)]-Glu-Phe-Ile-Ala-Trp-Leu-Val-Arg-Gly-Arg-Gly-NH2 (HAEGTFTSDVSCYLEGQAAXEFIAWLVRGRG; palmitoyl on Lys side chain; C-terminal amide; Sequence is synthesized; (20)..(20) Xaa is 26Lys[N-e-(N-a-palmitoyl-L-g-glutamyl)]; (31)..(31) N-terminal) [G4 series 35],6 days
7,His-Ala-Glu-Gly-Thr-Phe-Thr-Ser-Asp-Val-Ser-Cys-Tyr-Leu-Glu-Gly-Gln-Ala-Ala-Lys[N-ϵ-(N-α-Palmitoyl)]-Glu-Phe-Ile-Ala-Trp-Leu-Val-Arg-Gly-Arg-Gly-OH (HAEGTFTSDVSCYLEGQAAXEFIAWLVRGRG; not fully specified; palmitoyl on Lys side chain; C-terminal acid; Sequence is synthesized; (20)..(20) Xaa is 26Lys[N-e-(N-a-palmitoyl-L-g-glutamyl)]; (31)..(31) C-terminal) [G4 series 34],4 days
8,His-Ala-Glu-Gly-Thr-Phe-Thr-Ser-Asp-Val-Ser-Cys-Tyr-Leu-Glu-Gly-Gln-Ala-Ala-Lys[N-ϵ-(N-α-Palmitoyl-L-γ-glutamyl)]-Glu-Phe-Ile-Ala-Trp-Leu-Val-Arg-Gly-Arg-Gly-NH2 (HAEGTFTSDVSCYLEGQAAXEFIAWLVRGRG; palmitoyl-γ-glutamyl on Lys; C-terminal amide; Sequence is synthesized; (20)..(20) Xaa is 26Lys[N-e-(N-a-palmitoyl-L-g-glutamyl)]; (31)..(31) N-terminal) [G3 series 22],6 days
9,His-Ala-Glu-Gly-Thr-Phe-Thr-Ser-Asp-Val-Ser-Cys-Tyr-Leu-Glu-Gly-Gln-Ala-Ala-Lys[N-ϵ-(N-α-Palmitoyl-L-γ-glutamyl)]-Glu-Phe-Ile-Ala-Trp-Leu-Val-Lys[N-ϵ-(N-α-Palmitoyl-L-γ-glutamyl)]-Gly-Arg-Gly-NH2 (HAEGTFTSDVSCYLEGQAAXEFIAWLVXGRG; two palmitoyl-gamma-Glu on Lys; C-terminal amide; Sequence is synthesized; (20)..(20) Xaa is 26Lys[N-e-(N-a-palmitoyl-L-g-glutamyl)]; (28)..(28) Xaa is 26Lys[N-e-(N-a-palmitoyl-L-g-glutamyl)]; (31)..(31) N-terminal) [G5 series 41],3 days
10,His-Ala-Glu-Gly-Thr-Phe-Thr-Ser-Asp-Val-Ser-Cys-Tyr-Leu-Glu-Gly-Gln-Ala-Ala-Lys[N-ϵ-(N-α-Palmitoyl-L-γ-glutamyl)]-Glu-Phe-Ile-Ala-Trp-Leu-Val-Lys[N-ϵ-(N-α-Palmitoyl-L-γ-glutamyl)]-Gly-Arg-Gly-OH (HAEGTFTSDVSCYLEGQAAXEFIAWLVXGRG; two palmitoyl-gamma-Glu on Lys; C-terminal acid; Sequence is synthesized; (20)..(20) Xaa is 26Lys[N-e-(N-a-palmitoyl-L-g-glutamyl)]; (28)..(28) Xaa is 26Lys[N-e-(N-a-palmitoyl-L-g-glutamyl)]; (31)..(31) C-terminal) [G5 series 40],1 days
11,His-Ala-Glu-Gly-Thr-Phe-Thr-Ser-Asp-Val-Ser-Cys-Tyr-Leu-Glu-Gly-Gln-Ala-Ala-Lys[N-ϵ-(N-α-oleoyl)]-Glu-Phe-Ile-Ala-Trp-Leu-Val-Arg-Gly-Arg-Gly-NH2 (HAEGTFTSDVSCYLEGQAAXEFIAWLVRGRG; not fully specified; oleoyl on Lys; C-terminal amide; Sequence is synthesized; (20)..(20) Xaa is 26Lys[N-e-(N-a-oleoyl-L-g-glutamyl)]; (31)..(31) N-terminal) [G4 series 33],7 days
12,His-Ala-Glu-Gly-Thr-Phe-Thr-Ser-Asp-Val-Ser-Cys-Tyr-Leu-Glu-Gly-Gln-Ala-Ala-Lys[N-ϵ-(N-α-oleoyl)]-Glu-Phe-Ile-Ala-Trp-Leu-Val-Arg-Gly-Arg-Gly-OH (HAEGTFTSDVSCYLEGQAAXEFIAWLVRGRG; not fully specified; oleoyl on Lys; C-terminal acid; Sequence is synthesized; (20)..(20) Xaa is 26Lys[N-e-(N-a-oleoyl-L-g-glutamyl)]; (31)..(31) C-terminal) [G4 series 32],5 days
